Experimental data as given in the NIST ThermoML archive (doi:10.1016/j.jct.2012.09.026).
Numbers after ± are expanded uncertainties.

Legend:
[1] = Liquid, Vibrating tube method
[2] = xn = mol fraction of the nth substance listed; conditions: Liquid, x2 = 0

CC(C)(C)O [2-methylpropan-2-ol]
mass density [kg/m3], [1]
Conditions | 101.3 kPa | 10000 kPa | 25000 kPa | 50000 kPa | 75000 kPa | 100000 kPa
308.15 K | 770.14 ± 1 | – | – | – | – | –
323.15 K | 753.94 ± 1 | 764.58 ± 1 | 778.73 ± 1.1 | 798.2 ± 1.1 | 813.79 ± 1.2 | 827.34 ± 1.3

O [water]
mass density [kg/m3], [1]
Conditions | 101.3 kPa | 10000 kPa | 25000 kPa | 50000 kPa | 75000 kPa | 100000 kPa
278.15 K | 999.96 ± 1 | 1004.77 ± 1 | 1011.88 ± 1.1 | 1023.2 ± 1.1 | 1033.91 ± 1.2 | 1044.08 ± 1.3
288.15 K | – | 1003.67 ± 1 | 1010.42 ± 1.1 | 1021.21 ± 1.1 | 1031.47 ± 1.2 | 1041.23 ± 1.3
298.15 K | – | 1001.47 ± 1 | 1007.99 ± 1.1 | 1018.44 ± 1.1 | 1028.37 ± 1.2 | 1037.86 ± 1.3
308.15 K | – | 998.36 ± 1 | 1004.75 ± 1.1 | 1014.97 ± 1.1 | 1024.71 ± 1.2 | 1034 ± 1.3
323.15 K | 988.03 ± 1 | 992.31 ± 1 | 998.61 ± 1.1 | 1008.68 ± 1.1 | 1018.27 ± 1.2 | 1027.42 ± 1.3

O [water] + CC(C)(C)O
mass density [kg/m3], [2]
Conditions | 278.15 K | 288.15 K | 298.15 K | 308.15 K | 323.15 K
101.3 kPa, Vibrating tube method | 999.96 ± 1 | – | – | – | 988.03 ± 1
10000 kPa, Constant-volume piezometry | 1004.77 ± 1 | 1003.67 ± 1 | 1001.47 ± 1 | 998.36 ± 1 | 992.31 ± 1
25000 kPa, Constant-volume piezometry | 1011.88 ± 1.1 | 1010.42 ± 1.1 | 1007.99 ± 1.1 | 1004.75 ± 1.1 | 998.61 ± 1.1
50000 kPa, Constant-volume piezometry | 1023.2 ± 1.1 | 1021.21 ± 1.1 | 1018.44 ± 1.1 | 1014.97 ± 1.1 | 1008.68 ± 1.1
75000 kPa, Constant-volume piezometry | 1033.91 ± 1.2 | 1031.47 ± 1.2 | 1028.37 ± 1.2 | 1024.71 ± 1.2 | 1018.27 ± 1.2
100000 kPa, Constant-volume piezometry | 1044.08 ± 1.3 | 1041.23 ± 1.3 | 1037.86 ± 1.3 | 1034 ± 1.3 | 1027.42 ± 1.3
